Results reported in patent US20220370586A1, “METHOD OF GENERATING ACTIVATED T CELLS FOR CANCER THERAPY” (Cedars-Sinai Medical Center, priority 2019, published 2022).

Key:
[1] = tested on: T effector cells; assay: T cell suppression assay (CFSE proliferation of T effector cells, FACS); format: cell-based, human; settings: for effect on T effector cell proliferation (in words): T cell activation by antigen presenting cells, with or without Tregs; for increase of T cell expansion compared to T control group (without molecule): with T-reg (1:1)
Excerpt: PBMC was isolated (Ficoll, GE Healthcare) from the WBC cone collected from healthy platelet donor. Cells were washed and passed through 40 um cell strainer before being stained with T cell surface antibodies. Then cells were put on cell sorter (BD FACSARIA III). Specific cell populations were collected as follows: CD4^+CD25^− cells (T effector cells), CD4^+CD25^+CD45RA^+CD127^− cells (T regulatory cells) and CD3^− cells (serve as Antigen Presenting Cells, APC). T effector cells were labeled with CellTrace CFSE (Invitrogen), heavily washed before cell number counting. Effector cells and T-regs were then mixed together at 1:1 ratio in culture media (RPMI 1640, 10% FBS, Pen-Strep and 1% NEAA) which enhanced with anti-CD3 (3 ug/ml) anti-CD28 (2 ug/ml) antibodies. APCs were treated with Mitomycin (50 ug/ml) for 30 minutes at 37° C., 5% CO2 incubator, then added to culture mix (APC:T-eff 2:1) as a proliferation co-stimulator. Cell mixture was incubated at 37° C., 5% CO2 for 6 days before being re-stained with T cell surface markers (CD4, CD25) and sent for FACS analysis (FIGS. 1A-1B, 4 and 5).
Molecule 11702 and 11704 were added to treat groups respectively at a concentration gradient of 5 uM, 25 uM and 50 uM.
FACS results focus on CD4^+CD25^−CFES^+ population (T effector cells). […] As T cells proliferate and replicate, CFSE peaks extend successively to left and become less fluorescent (toward negative range). The more cell population moves to left, the stronger the proliferation.

[2] = tested on: B16 melanoma; assay: B16 melanoma implantation in C57 BL mice; format: in vivo
Method: After implantation of B16 melanoma, C57 BL mice underwent treatment with 11702 GITR agonist or DMSO control. (A) Animals lived longer after GITR agonist intraperitoneal 30 mg/kg treatment twice per week (p=0.0333, log rank). (B) Tumor volume was inhibited in 11702 treated animals (p<0.05, Anova).
After implantation of B16 melanoma, C57 BL mice underwent treatment with 11702 GITR agonist or DMSO control. […] (B) Tumor volume was inhibited in 11702 treated animals (p<0.05, Anova).

Row | SMILES | inhibition at 50 µM ([1]; Homo sapiens, T-cell, T effector without T-reg, 50 uM, read-out: inhibition (decrease) of T cell proliferation) [%] | inhibition at 25 µM ([1]; Homo sapiens, T-cell, with T-reg, 25 uM, read-out: inhibition (decrease) of T cell expanding) [%] | effect on T effector cell proliferation (in words) [1] | effect on T effector cells ([1]; T effector without T-reg, 5 uM) | effect on T effector cells ([1]; T effector without T-reg, 25 um) | decrease of proliferation compared to base line ([1]; with T-reg, 50 uM) [%] | most effective dose to accelerate T cell proliferation ([1]; T effector without T-reg) | increase of proliferated population compared to base line ([1]; T effector without T-reg, 5 uM) [%] | increase of proliferated population compared to base line ([1]; T effector without T-reg, 25 uM) [%] | increase of proliferated population compared to base line ([1]; T effector without T-reg, 50 uM) [%] | increase of T cell expansion compared to T control group (without molecule) ([1]; 5 uM) [%] | increase of T cell expansion compared to T control group (without molecule) ([1]; 25 uM) [%] | increase of T cell expansion compared to T control group (without molecule) ([1]; 50 uM) [%] | survival ([2]; intraperitoneal 30 mg/kg twice per week vs DMSO control, p=0.0333, log rank) | PD-1 expression on activated CD4+ and effector memory CD8+ tumor infiltrating lymphocytes ([2]; vs DMSO control) | activated CD4+ cells among tumor infiltrating lymphocytes (FACs) ([2]; vs DMSO control) | effector memory cytotoxic CD8+ T cells among tumor infiltrating lymphocytes (FACs) ([2]; vs DMSO control) | Tumor volume ([2]; vs DMSO control, p<0.05, Anova)
1 | O=C(CCCCC(=O)NN=Cc1cccc(O)c1)NN=Cc1cccc(O)c1 [RMGL171104] | 39.1 | 33.9 | dose dependent retraction of T effector cells | no significant effect | no significant effect | 55.9 | – | – | – | – | – | – | – | – | – | – | – | –
2 | OCC1OC(Nc2ccc(-c3ccc(NC4CC(O)C(CO)O4)cc3)cc2)CC1O (stereo not shown) [RMGL171102] | – | – | highly active | – | – | – | around 25 uM | 47.4 | 61.7 | 52 | 34.4 | 96.7 | 107.1 | lived longer | increased PD-1 expression | increased presence | increased | inhibited
